Calls of active or inactive are those of the source. The rule behind the calls is not given here.

Experimental findings from ChEMBL document CHEMBL1150554, “Synthesis and activity of spiroisoindolines as novel noncompetitive NMDA antagonists” (Bioorg Med Chem Lett, 1993) are described below.

One assay deals with Glutamate NMDA receptor. Put plainly: Inhibition of [3H]-TCP binding to NMDA receptors on rat brain membranes. It is filed as cell membranes, Membrane.
Assay [1] relates to Mus musculus. Put plainly: Compound was tested at a dose of 20-40mg/Kg, ip; produced effects such as body rolling, ataxia and hyperlocomotion. Format: functional, organism-based.
The subject of assay [2] is Mus musculus. As to the kind of experiment: Compound was tested at a dose of 0.5-1mg/Kg, ip; produced effects such as body rolling, ataxia and hyperlocomotion. It is filed as functional, organism-based.
Assay [3] relates to Gerbillinae. Put plainly: Tested for the percent protection from CA1 damage of the hippocampus (gerbil ischemia-induced cell death) after 1 mg/kg intraperitoneal administration, 45 min pre and 5 min post ischemia event. Format: functional.
Assay [4] relates to Mus musculus. Put plainly: Tested in vivo for the antagonistic activity after 0.4 ug/mouse of NMDA intracerebral administration in mice. It is filed as functional. Conditions: central.
Assay [5] concerns Mus musculus. Put plainly: Compound was tested up to a dose of 80mg/Kg, ip; did not produce effects such as body rolling, ataxia and hyperlocomotion. Format: functional, organism-based.
For the next assay, the system named is Rattus norvegicus. As to the kind of experiment: Tested […] for the NMDA-induced cytotoxicity at a concentration of 100 uM in rat cortical cell cultures. Format: functional.
Assay [6] concerns Gerbillinae. Put plainly: Tested for the percent reduction in CA1 damage of the hippocampus (gerbil ischemia-induced cell death) after 60 mg/kg intraperitoneal administration,45 min pre and 5 min post ischemia event. Format: functional.

By IC50 is commonly meant the concentration at which inhibition is half-maximal. High values mean weaker potency in that assay, low ones greater potency in that assay. On to `CN1Cc2ccc(O)cc2C12CCCc1ccccc12` (centres undefined), for which, on Glutamate NMDA receptor, the 50% inhibitory concentration (IC50) worked out at 200 nM.

As to `c1ccc2c(c1)CCC21NCc2ccccc21` (centres undefined), the result with Mus musculus [1] was Active. Besides, on Glutamate NMDA receptor, the IC50 was found to be 980 nM. As to `Oc1cccc2c1CCC21NCc2ccccc21` (centres undefined), the IC50 on Glutamate NMDA receptor stood at 730 nM.

On to `CN1Cc2ccc(O)cc2C12CCCCc1ccccc12` (centres undefined), for which the IC50 at Glutamate NMDA receptor was 160 nM.

`CCCN1Cc2ccccc2C12CCCc1ccccc12` (centres undefined) displayed a concentration for half-maximal inhibition (IC50) on Glutamate NMDA receptor of 1600 nM. Take `CCCN1Cc2ccccc2C12CCCCc1ccccc12` (centres undefined): the half-inhibitory concentration (IC50) on Glutamate NMDA receptor worked out at 17000 nM. In turn, `CN1Cc2ccccc2C12CCCCc1ccccc12` (centres undefined) gave a half-inhibitory concentration (IC50) at Glutamate NMDA receptor of 1700 nM. `c1ccc2c(c1)CCCC21NCc2ccccc21` (centres undefined) gave an IC50 on Glutamate NMDA receptor of 890 nM. In the case of `COc1ccc2c(c1)C1(CCCCc3ccccc31)N(C)C2` (centres undefined), the IC50 on Glutamate NMDA receptor was 2700 nM. Compared with the last molecule, the IC50 is about 3-fold higher. Molecule `CN1Cc2ccccc2C12CCCc1ccccc12` (centres undefined) yielded a half-inhibitory concentration (IC50) at Glutamate NMDA receptor of 1500 nM. At Glutamate NMDA receptor, `COc1ccc2c(c1)C1(CCCc3ccccc31)N(C)C2` (centres undefined) had a 50% inhibitory concentration (IC50) of 790 nM. For `COc1ccc2c(c1)C1(CCCc3ccccc31)NC2` (centres undefined), the IC50 at Glutamate NMDA receptor stood at 4000 nM. This IC50 lies about 5.1-fold higher than the previous one. `COc1ccc2c(c1)C1(CCCCc3ccccc31)NC2` (centres undefined) registered an IC50 at Glutamate NMDA receptor of 4800 nM. As to `CN1Cc2ccccc2C12CCc1ccccc12` (centres undefined), the IC50 on Glutamate NMDA receptor was found to be 65 nM. Against the preceding molecule, the IC50 is about 74-fold lower.

For `C[C@]12N[C@H](Cc3ccccc31)c1ccccc12.Cl` [DIZOCILPINE HYDROCHLORIDE], the outcome in the assay with Mus musculus [2] was Active. This molecule showed a Protection in the assay on Gerbillinae [3] of 42%.

On to `c1ccc2c(c1)CCCCC21NCc2ccccc21` (centres undefined), for which the IC50 at Glutamate NMDA receptor came out at 1700 nM.

On to `c1ccc2c(c1)CNC21CCCc2sccc21` (centres undefined), for which the concentration for half-maximal inhibition (IC50) on Glutamate NMDA receptor is 600 nM. On to `CCCN1Cc2ccc(OC)cc2C12CCCCc1ccccc12` (centres undefined), for which, at Glutamate NMDA receptor, the IC50 stood at 17000 nM. In the case of `Oc1ccc2c(c1)C1(CCCc3ccccc31)NC2` (centres undefined), at Glutamate NMDA receptor, the half-inhibitory concentration (IC50) is 240 nM. Regarding `COc1cccc2c1CCC21NCc2ccccc21` (centres undefined), on Glutamate NMDA receptor, the half-maximal inhibitory concentration (IC50) came out at 5000 nM. Same read-out and setting: for `CCCN1Cc2ccccc2C12CCc1ccccc12` (centres undefined) the value was 440 nM; for `CCCN1Cc2ccccc2C12CCCc1sccc12` (centres undefined), 1500 nM. By ED50 is commonly meant the dose at which the effect has come halfway, by size or by number of responders. Read a high ED50 as a need for a large dose. The molecule `CN1Cc2ccccc2C12CCCc1sccc12.O=C(O)C(=O)O` (centres undefined) gave an ED50 in the assay with Mus musculus [4] of 32 mg/kg. For the same molecule, the result with Mus musculus [5] was inactive. The Protection in the assay on Rattus norvegicus worked out at 68%. In addition, the Reduction in the assay with Gerbillinae [6] is reported as 84%. The molecule also gave an IC50 on Glutamate NMDA receptor of 490 nM.
